# Measurements taken from patent publication US20090312288A1 (TAKEDA PHARMACEUTICAL COMPANY LIMITED, priority 2008, published 2009).
# Biological target: Aurora B/INCENP (Homo sapiens, UniProt Q96GD4)
# Test: Determination of inhibition of AIK: Aurora B/INCENP direct fluorescence polarization (IMAP) assay
# Format: biochemical
# Conditions: 10 uM ATP, 0.8 nM Aurora B/INCENP; values given as bins; read-out: IC50 of Exemplified Compounds Against AIK B
# Sequence of Aurora B/INCENP (Q96GD4 whole entry): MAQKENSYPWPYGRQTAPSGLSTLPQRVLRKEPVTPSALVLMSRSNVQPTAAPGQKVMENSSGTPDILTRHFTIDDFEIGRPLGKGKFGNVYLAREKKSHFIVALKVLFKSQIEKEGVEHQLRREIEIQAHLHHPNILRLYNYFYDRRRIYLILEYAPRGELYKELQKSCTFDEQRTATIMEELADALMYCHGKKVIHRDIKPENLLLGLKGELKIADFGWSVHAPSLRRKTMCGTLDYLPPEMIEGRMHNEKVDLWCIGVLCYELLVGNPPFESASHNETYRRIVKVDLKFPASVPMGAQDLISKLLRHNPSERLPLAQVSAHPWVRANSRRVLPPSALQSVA
# Sequence of Aurora B/INCENP (Q9NQS7 whole entry partner): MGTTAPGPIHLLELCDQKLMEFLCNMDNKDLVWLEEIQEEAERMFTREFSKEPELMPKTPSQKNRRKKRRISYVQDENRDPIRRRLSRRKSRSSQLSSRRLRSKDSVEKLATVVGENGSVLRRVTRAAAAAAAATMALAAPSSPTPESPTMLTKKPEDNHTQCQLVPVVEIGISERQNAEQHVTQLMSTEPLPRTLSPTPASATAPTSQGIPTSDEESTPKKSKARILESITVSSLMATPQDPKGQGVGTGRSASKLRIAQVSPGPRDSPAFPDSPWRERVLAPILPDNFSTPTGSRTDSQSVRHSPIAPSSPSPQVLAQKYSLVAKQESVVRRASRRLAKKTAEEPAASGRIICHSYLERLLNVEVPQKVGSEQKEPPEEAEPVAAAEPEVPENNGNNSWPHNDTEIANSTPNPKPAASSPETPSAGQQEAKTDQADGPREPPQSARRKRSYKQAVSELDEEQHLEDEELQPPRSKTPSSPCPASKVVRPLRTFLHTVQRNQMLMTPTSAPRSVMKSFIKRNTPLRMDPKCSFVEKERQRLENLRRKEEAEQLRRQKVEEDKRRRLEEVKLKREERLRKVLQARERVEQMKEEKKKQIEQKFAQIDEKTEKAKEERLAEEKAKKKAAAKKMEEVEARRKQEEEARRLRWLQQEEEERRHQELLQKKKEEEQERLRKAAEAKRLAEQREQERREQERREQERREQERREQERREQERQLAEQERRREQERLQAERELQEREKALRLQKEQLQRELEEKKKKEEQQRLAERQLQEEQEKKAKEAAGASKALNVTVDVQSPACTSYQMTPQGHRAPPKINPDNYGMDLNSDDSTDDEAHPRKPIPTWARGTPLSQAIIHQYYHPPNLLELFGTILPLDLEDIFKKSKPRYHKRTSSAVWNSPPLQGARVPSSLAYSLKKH
row,IC50,Structure (SMILES)
1,8.6 to 13 nM,"CCN(CC)CCNC(=O)c1cc(-c2cccc(S(=O)(=O)CC)c2)c2c([nH]c3ncc(C)cc32)c1C [Compound 262, N-(2-(diethylamino)ethyl)-5-(3-(ethylsulfonyl)phenyl)-3,8-dimethyl-9H-pyrido[2,3-b]indole-7-carboxamide]"
2,4 to 5.5 nM,"CCN(CCO)CCCOc1ccc(-c2cccc(S(=O)(=O)C3CC3)c2)c2c1[nH]c1ncc(C)cc12 [Compound 270, 2-((3-(5-(3-(cyclopropylsulfonyl)phenyl)-3-methyl-9H-pyrido[2,3-b]indol-8-yloxy)propyl)(ethyl)amino)ethanol]"
3,5.6 to 8.5 nM,"CCN(CCCOc1ccc(-c2cccc(S(=O)(=O)C3CC3)c2)c2c1[nH]c1ncc(C)cc12)CCOP(=O)(O)O [Compound 272, 2-((3-(5-(3-(cyclopropylsulfonyl)phenyl)-3-methyl-9H-pyrido[2,3-b]indol-8-yloxy)propyl)(ethyl)amino)ethyl dihydrogen phosphate]"
4,5.6 to 8.5 nM,"CCN(CCO)CCCOc1ccc(-c2cccc(C(=O)NC3CC3)c2)c2c1[nH]c1ncc(C)cc12 [Compound 273, N-cyclopropyl-3-(8-(3-(ethyl(2-hydroxyethyl)amino)propoxy)-3-methyl-9H-pyrido[2,3-b]indol-5-yl)benzamide]"
5,5.6 to 8.5 nM,"CCN(CCCOc1ccc(-c2cccc(C(=O)NC3CC3)c2)c2c1[nH]c1ncc(C)cc12)CCOP(=O)(O)O [Compound 275, 2-((3-(5-(3-(cyclopropylcarbamoyl)phenyl)-3-methyl-9H-pyrido[2,3-b]indol-8-yloxy)propyl)(ethyl)amino)ethyl dihydrogen phosphate]"
6,5.6 to 8.5 nM,"CCN(CCO)CCCOc1ccc(-c2cccc(S(=O)(=O)CC)c2)c2c1[nH]c1ncc(C)cc12 [Compound 276, 2-(ethyl(3-(5-(3-(ethylsulfonyl)phenyl)-3-methyl-9H-pyrido[2,3-b]indol-8-yloxy)propyl)amino)ethanol]"
7,4 to 5.5 nM,"CCN(CCCOc1ccc(-c2cccc(S(=O)(=O)CC)c2)c2c1[nH]c1ncc(C)cc12)CCOP(=O)(O)O [Compound 278, 2-(ethyl(3-(5-(3-(ethylsulfonyl)phenyl)-3-methyl-9H-pyrido[2,3-b]indol-8-yloxy)propyl)amino)ethyl dihydrogen phosphate]"
8,8.6 to 13 nM,"CN1CCC(COc2ccc(-c3cccc(C(=O)NC4CC4)c3)c3c2[nH]c2ncc(Cl)cc23)CC1 [Compound 285, 3-(3-chloro-8-((1-methylpiperidin-4-yl)methoxy)-9H-pyrido[2,3-b]indol-5-yl)-N-cyclopropylbenzamide]"
9,8.6 to 13 nM,"CN1CCC(COc2ccc(-c3cccc(S(=O)(=O)C4CC4)c3)c3c2[nH]c2ncc(Cl)cc23)CC1 [Compound 286, 3-chloro-5-(3-(cyclopropylsulfonyl)phenyl)-8-((1-methylpiperidin-4-yl)methoxy)-9H-pyrido[2,3-b]indole]"
10,5.6 to 8.5 nM,"CCS(=O)(=O)c1cccc(-c2ccc(OCC3CCN(C)CC3)c3[nH]c4ncc(F)cc4c23)c1 [Compound 287, 5-(3-(ethylsulfonyl)phenyl)-3-fluoro-8-((1-methylpiperidin-4-yl)methoxy)-9H-pyrido[2,3-b]indole]"
11,< 4 nM,"CCS(=O)(=O)c1cccc(-c2ccc(OCCCO)c3[nH]c4ncc(Cl)cc4c23)c1 [Compound 291, 3-(3-chloro-5-(3-(ethylsulfonyl)phenyl)-9H-pyrido[2,3-b]indol-8-yloxy)propan-1-ol]"
12,< 4 nM,"CCN(CCO)CCCOc1ccc(-c2cccc(S(=O)(=O)CC)c2)c2c1[nH]c1ncc(Cl)cc12 [Compound 293, 2-((3-(3-chloro-5-(3-(ethylsulfonyl)phenyl)-9H-pyrido[2,3-b]indol-8-yloxy)propyl)(ethyl)amino)ethanol]"
13,< 4 nM,"CCN(CCCOc1ccc(-c2cccc(S(=O)(=O)CC)c2)c2c1[nH]c1ncc(Cl)cc12)CCOP(=O)(O)O [Compound 294, 2-((3-(3-chloro-5-(3-(ethylsulfonyl)phenyl)-9H-pyrido[2,3-b]indol-8-yloxy)propyl)(ethyl)amino)ethyl dihydrogen phosphate]"
14,< 4 nM,"CCN(CCO)CCCOc1ccc(-c2cccc(S(=O)(=O)C3CC3)c2)c2c1[nH]c1ncc(Cl)cc12 [Compound 298, 2-((3-(3-chloro-5-(3-(cyclopropylsulfonyl)phenyl)-9H-pyrido[2,3-b]indol-8-yloxy)propyl)(ethyl)amino)ethanol]"
15,< 4 nM,"Cc1cnc2[nH]c3c(OCCCN4CCC(O)CC4)ccc(-c4cccc(S(=O)(=O)C5CC5)c4)c3c2c1 [Compound 300, 1-(3-(5-(3-(cyclopropylsulfonyl)phenyl)-3-methyl-9H-pyrido[2,3-b]indol-8-yloxy)propyl)piperidin-4-ol]"
16,< 4 nM,"CCS(=O)(=O)c1cccc(-c2ccc(OCCCn3ccnc3)c3[nH]c4ncc(Cl)cc4c23)c1 [Compound 301, 8-(3-(1H-imidazol-1-yl)propoxy)-3-chloro-5-(3-(ethylsulfonyl)phenyl)-9H-pyrido[2,3-b]indole]"
17,< 4 nM,"CCS(=O)(=O)c1cccc(-c2ccc(OCCCN(C)CCO)c3[nH]c4ncc(C)cc4c23)c1 [Compound 305, 2-((3-(5-(3-(ethylsulfonyl)phenyl)-3-methyl-9H-pyrido[2,3-b]indol-8-yloxy)propyl)(methyl)amino)ethanol]"
18,< 4 nM,"CCS(=O)(=O)c1cccc(-c2ccc(OCCCN(C)CCOP(=O)(O)O)c3[nH]c4ncc(C)cc4c23)c1 [Compound 308, 2-((3-(5-(3-(ethylsulfonyl)phenyl)-3-methyl-9H-pyrido[2,3-b]indol-8-yloxy)propyl)(methyl)amino)ethyl dihydrogen phosphate]"
19,< 4 nM,"Cc1cnc2[nH]c3c(OC[C@@H](O)CN(C)C)ccc(-c4cccc(S(=O)(=O)C5CC5)c4)c3c2c1 [Compound 313, (S)-1-(5-(3-(cyclopropylsulfonyl)phenyl)-3-methyl-9H-pyrido[2,3-b]indol-8-yloxy)-3-(dimethylamino)propan-2-ol]"
20,4 to 5.5 nM,"Cc1cnc2[nH]c3c(OC[C@H](CN(C)C)OP(=O)(O)O)ccc(-c4cccc(S(=O)(=O)C5CC5)c4)c3c2c1 [Compound 314, (S)-1-(5-(3-(cyclopropylsulfonyl)phenyl)-3-methyl-9H-pyrido[2,3-b]indol-8-yloxy)-3-(dimethylamino)propan-2-yl dihydrogen phosphate]"
21,< 4 nM,"Cc1cnc2[nH]c3c(OC[C@@H](CN(C)C)OP(=O)(O)O)ccc(-c4cccc(S(=O)(=O)C5CC5)c4)c3c2c1 [Compound 315, (R)-1-(5-(3-(cyclopropylsulfonyl)phenyl)-3-methyl-9H-pyrido[2,3-b]indol-8-yloxy)-3-(dimethylamino)propan-2-yl dihydrogen phosphate]"
22,> 13 nM,"Cc1cc(Nc2ccc(OCC3CCN(C)CC3)c3[nH]c4ncc(Cl)cc4c23)ccc1N1CCN(C)CC1 [Compound 316, 3-chloro-N-(3-methyl-4-(4-methylpiperazin-1-yl)phenyl)-8-((1-methylpiperidin-4-yl)methoxy)-9H-pyrido[2,3-b]indol-5-amine]"
23,8.6 to 13 nM,"CCN(CCO)CCOc1ccc(-c2cccc(S(=O)(=O)C3CC3)c2)c2c1[nH]c1ncc(C)cc12 [Compound 318, 2-((2-(5-(3-(cyclopropylsulfonyl)phenyl)-3-methyl-9H-pyrido[2,3-b]indol-8-yloxy)ethyl)(ethyl)amino)ethanol]"
